The results in this text go back to ChEMBL document CHEMBL1139487, “Discovery of corticotropin releasing factor 2 receptor selective sauvagine analogues for treatment of skeletal muscle atrophy” (J Med Chem, 2005).

One assay is filed under the species Mus musculus. As to the kind of experiment: Selectivity ratio of EC50s for mouse corticotropin releasing factor receptors 1 and 2.
In assay [1] the target is T1, Corticotropin-releasing factor receptor 1 (Mus musculus) (UniProt P35347).
T1 sequence (whole entry): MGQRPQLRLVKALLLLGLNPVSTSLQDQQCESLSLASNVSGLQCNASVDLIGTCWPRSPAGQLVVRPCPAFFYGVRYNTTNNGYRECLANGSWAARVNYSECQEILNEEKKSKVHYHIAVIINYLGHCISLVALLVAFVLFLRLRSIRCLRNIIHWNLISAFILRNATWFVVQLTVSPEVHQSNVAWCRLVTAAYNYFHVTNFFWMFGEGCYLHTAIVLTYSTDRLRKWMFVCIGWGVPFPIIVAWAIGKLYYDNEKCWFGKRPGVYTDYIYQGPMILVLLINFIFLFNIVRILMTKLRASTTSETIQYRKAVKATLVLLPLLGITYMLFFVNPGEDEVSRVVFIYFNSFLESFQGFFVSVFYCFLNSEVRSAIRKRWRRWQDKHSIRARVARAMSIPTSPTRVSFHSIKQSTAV
The assay can be described thus: In vitro agonistic activity against mouse corticotropin releasing factor 1 receptor. In kind it is functional.

Assay [2] has as its target Corticotropin-releasing factor receptor 2 (Mus musculus) (UniProt Q60748). As to the kind of experiment: In vitro agonistic activity against mouse corticotropin releasing factor 2 receptor. In kind it is functional.
The target in assay [3] is T2, Corticotropin-releasing factor receptor 1 (Mus musculus, UniProt P35347).
T2 sequence (P35347 whole entry): T1 sequence (whole entry)
As to the kind of experiment: In vitro effective concentration for mouse corticotropin releasing factor 1 receptor.

The target of assay [4] is Corticotropin-releasing factor receptor 2 (Mus musculus, UniProt Q60748). The assay can be described thus: In vitro effective concentration for mouse corticotropin releasing factor 2 receptor.
Sequence of Corticotropin-releasing factor receptor 2 (Q60748 whole entry): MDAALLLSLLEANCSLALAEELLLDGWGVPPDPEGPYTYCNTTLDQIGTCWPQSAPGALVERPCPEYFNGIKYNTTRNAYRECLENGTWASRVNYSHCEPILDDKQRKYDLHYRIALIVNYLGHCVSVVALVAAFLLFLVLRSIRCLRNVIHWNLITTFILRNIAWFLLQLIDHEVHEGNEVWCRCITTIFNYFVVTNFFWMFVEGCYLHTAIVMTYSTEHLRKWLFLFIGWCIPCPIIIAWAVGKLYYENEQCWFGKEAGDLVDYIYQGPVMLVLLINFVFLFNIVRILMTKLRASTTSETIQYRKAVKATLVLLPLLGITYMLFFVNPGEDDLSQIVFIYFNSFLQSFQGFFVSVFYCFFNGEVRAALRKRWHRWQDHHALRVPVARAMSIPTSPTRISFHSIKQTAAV

Sequence of Corticotropin-releasing factor receptor 2 (Mus musculus) (Q60748 whole entry): as above

As usually defined, the Emax is the maximal effect, on the per cent scale that the assay sets. As a reminder, the EC50 is the midpoint of the concentration-response curve. As to `CC[C@H](C)[C@H](NC(=O)[C@@H](NC(=O)[C@H](CC(=O)O)NC(=O)[C@H](CC(C)C)NC(=O)[C@H](CC(C)C)NC(=O)[C@H](CC(C)C)NC(=O)[C@H](CCCN=C(N)N)NC(=O)[C@H](CC(N)=O)NC(=O)[C@H](CC(N)=O)NC(=O)[C@H](C)NC(=O)[C@H](C)NC(=O)[C@H](CCC(N)=O)NC(=O)[C@H](CCC(N)=O)NC(=O)[C@H](CCCCN)NC(=O)[C@H](CCC(=O)O)NC(=O)[C@H](CCCCN)NC(=O)[C@H](CCC(=O)O)NC(=O)[C@H](CCC(N)=O)NC(=O)[C@H](CCCCN)NC(=O)[C@H](CCC(=O)O)NC(=O)[C@@H](NC(=O)[C@H](CCC(=O)O)NC(=O)[C@@H](NC(=O)[C@H](CCSC)NC(=O)[C@H](CCCCN)NC(=O)[C@H](CCCN=C(N)N)NC(=O)[C@H](CC(C)C)NC(=O)[C@H](CC(C)C)NC(=O)[C@@H](NC(=O)[C@H](Cc1ccc(O)cc1)NC(=O)[C@@H]1CCCN1C(=O)[C@H](CC(C)C)NC(=O)[C@H](CC(=O)O)NC(=O)[C@@H](NC(=O)[C@H](CO)NC(=O)[C@@H](NC(=O)[C@@H]1CCCN1C(=O)[C@@H]1CCCN1C(=O)CNC(=O)[C@@H]1CCC(=O)N1)[C@@H](C)CC)[C@@H](C)CC)C(C)C)[C@@H](C)CC)[C@@H](C)CC)[C@@H](C)O)C(=O)O`, the Selectivity in the assay listed under Mus musculus is 20. For the same compound, the figures for the Emax in assay [1] and in assay [2] were 80% and 100%, respectively. Besides, the EC50 in assay [3] was determined as 100 nM; in assay [4] it was 5 nM.
The like results for `CC[C@H](C)[C@H](NC(=O)[C@@H](NC(=O)[C@H](CC(=O)O)NC(=O)[C@H](CC(C)C)NC(=O)[C@H](CC(C)C)NC(=O)[C@H](CC(C)C)NC(=O)[C@H](CCCN=C(N)N)NC(=O)[C@H](CC(N)=O)NC(=O)[C@H](CC(N)=O)NC(=O)[C@H](C)NC(=O)[C@H](C)NC(=O)[C@H](CCC(N)=O)NC(=O)[C@H](CCC(N)=O)NC(=O)[C@H](CCCCN)NC(=O)[C@H](CCC(=O)O)NC(=O)[C@H](CCCCN)NC(=O)[C@H](CCC(=O)O)NC(=O)[C@H](CCC(N)=O)NC(=O)[C@H](CCCCN)NC(=O)[C@H](CCC(=O)O)NC(=O)[C@@H](NC(=O)[C@H](CCC(=O)O)NC(=O)[C@@H](NC(=O)[C@H](CCSC)NC(=O)[C@H](CCCCN)NC(=O)[C@H](CCCN=C(N)N)NC(=O)[C@H](CC(C)C)NC(=O)[C@H](CC(C)C)NC(=O)[C@H](Cc1ccc(O)cc1)NC(=O)[C@H](CC(N)=O)NC(=O)[C@@H]1CCCN1C(=O)[C@H](CC(C)C)NC(=O)[C@H](CC(=O)O)NC(=O)[C@@H](NC(=O)[C@H](CO)NC(=O)[C@@H](NC(=O)[C@@H]1CCCN1C(=O)[C@@H]1CCCN1C(=O)CNC(=O)[C@@H]1CCC(=O)N1)[C@@H](C)CC)[C@@H](C)CC)[C@@H](C)CC)[C@@H](C)CC)[C@@H](C)O)C(=O)O` were, in that order, 10, 100%, 93%, 220 nM and 21.6 nM.
